From patent US20240109843A1, “BENZALDEHYDE COMPOUNDS WITH DIRECT POLYMER DESTABILIZING EFFECTS TO TREAT SICKLE CELL DISEASE” (VIRGINIA COMMONWEALTH UNIVERSITY, priority 2018, published 2024)

Key:
[1] = test system: RBCs from donors with homozygous SCD; test: Oxygen-independent sickle inhibition in SS blood suspensions under anoxia (100% nitrogen); type: cell-based, human; details: anoxia
Summary of the method: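 After room-air re-oxygenation for 15 min to reverse sickling, SS blood suspensions were held under 100% nitrogen for 1 h (screening) or up to 2.5 h (time course), with aliquots fixed at set intervals. Sickled versus non-sickled cells were counted by bright-field microscopy to calculate sickle inhibition.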

[2] = ADME / bioavailability assessment; details: in vivo
intracellular Hb = target: T1, intracellular Hb (Mus musculus, UniProt P01942); test: In vivo modification of intracellular Hb in wild-type mice; parameters: species or system C57BL/6 mice; details: IP 150 mg/kg, 30% PEG300, 6 h
T1 construct: from tissue; host or cells: blood (red cell lysates) of dosed C57BL/6 mice
T1 sequence (P01942 2-142 limits assumed): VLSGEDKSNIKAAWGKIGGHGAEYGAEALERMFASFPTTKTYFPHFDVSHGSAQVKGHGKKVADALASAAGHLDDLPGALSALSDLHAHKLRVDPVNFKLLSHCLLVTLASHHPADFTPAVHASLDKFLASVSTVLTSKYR
T1 sequence (P02088 2-147 partner limits assumed): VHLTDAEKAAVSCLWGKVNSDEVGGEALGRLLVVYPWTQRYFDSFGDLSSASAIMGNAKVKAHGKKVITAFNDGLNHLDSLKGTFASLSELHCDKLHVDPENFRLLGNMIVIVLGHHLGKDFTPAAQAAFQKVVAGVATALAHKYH
Protocol: We tested in vivo pharmacologic (pharmacodynamics) effects of select PP compounds in C57BL/6 mice. The animals were treated with a single intraperitoneal (IP) (150 mg/kg body weight) dose of PP6, PP10, PP14, and TD7, which were formulated with 30% PEG300. Blood samples were obtained prior to treatment (0) and 1, 3 and 6 h post-treatment, via submandibular bleeding, and subjected to hemolysis using standard methods. Clarified lysates, free of cell debris and red blood cell ghosts were analyzed by cation-exchange HPLC to determine the levels of drug-modified hemoglobin (adducts); and to conduct oxygen equilibrium studies to determine degrees of shift in p50 values using methodologies described earlier for in vitro studies on human samples. In a subsequent follow-up experiment, a new excipient obtained from Catalent Pharma Solutions was also used to formulate PP14 and used for a single intraperitoneal (IP) and oral (150 mg/kg body weight) dose. Blood samples were obtained prior to treatment (0) and 1, 3 or 5 h post-treatment, via submandibular bleeding, and used to determine the levels of drug-modified hemoglobin (adducts); and to conduct oxygen equilibrium studies to determine degrees of shift in p50 values as described above.

Hb [3] = target: T2, Hb (Homo sapiens, UniProt P69905); test: Hb modification (drug-adduct formation) in SS blood suspensions by cation-exchange HPLC; type: binding; parameters: Blood suspensions from subjects with homozygous SCD; from tissue; host or cells: blood suspensions (20% hematocrit) from donors with homozygous SCD; lysates of the treated red cells; details: 2 mM, 4 biological replicates
Summary of the method: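 Homozygous SCD blood at 20% hematocrit in Hemox buffer with glucose and BSA was incubated with compound (0-2 mM) 1 h at 37° C in air, then up to 2 h hypoxia (2.5% O2). Lysates, with or without 50 mM sodium borohydride reduction, were analysed by weak cation-exchange HPLC at A410 nm for Hb-drug adducts.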
Target sequence in this assay (P69905 2-142): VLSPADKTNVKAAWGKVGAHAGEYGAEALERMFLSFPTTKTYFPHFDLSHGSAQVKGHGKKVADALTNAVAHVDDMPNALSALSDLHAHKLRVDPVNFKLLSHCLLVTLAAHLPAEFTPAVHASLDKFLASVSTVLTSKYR
Target sequence in this assay (P68871 with tags, fused parts or gaps E7V partner): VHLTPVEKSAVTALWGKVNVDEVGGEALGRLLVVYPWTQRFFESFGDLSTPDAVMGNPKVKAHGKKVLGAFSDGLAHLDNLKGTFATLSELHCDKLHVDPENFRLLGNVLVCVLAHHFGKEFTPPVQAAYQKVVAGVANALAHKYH

Hb [4] = target: T2, Hb; test: Time-dependent Hb-compound adduct formation (Hb modification) in normal whole blood; type: binding; parameters: Hemoglobin modification, studies using non-sickling AA blood; from tissue; host or cells: non-sickling (AA) human blood, red blood cells; details: 2 mM, normal adult blood, hematocrit 30%, 37° C.
Target sequence in this assay (P69905 2-142 limits assumed): as the sequence (P69905 2-142) above
Target sequence in this assay (P68871 2-147 partner limits assumed): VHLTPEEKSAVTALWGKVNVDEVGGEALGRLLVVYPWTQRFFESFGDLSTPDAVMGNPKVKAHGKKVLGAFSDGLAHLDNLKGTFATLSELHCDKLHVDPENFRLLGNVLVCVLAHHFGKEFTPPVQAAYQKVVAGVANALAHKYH

sickle red blood cells = test: Antisickling study with human sickle blood under 2.5% oxygen; type: cell-based; details: Homo sapiens, Erythrocyte, sickle RBCs, 2.5% oxygen, read-out: sickling inhibition
Protocol: Blood suspensions from subjects with homozygous SCD (resuspended in Hemox™ buffer to a final hematocrit 20%) were incubated under air in the absence or presence of the compounds (0.5 mM, 1 mM and 2 mM) at 37° C. for 1 h to ensure that binding had attained equilibrium. The suspensions were then incubated under hypoxic conditions (2.5% oxygen/97.5% nitrogen) at 37° C. for 1 h. Aliquot samples were fixed with 2% glutaraldehyde solution without exposure to air, and then subjected to microscopic morphological analysis of bright field images (at 40× magnification) of single layer cells on an Olympus BX40 microscope fitted with an Infinity Lite B camera (Olympus), and the coupled Image Capture software. The residual samples were washed in phosphate-buffer saline, and hemolyzed in hypotonic lysis buffer for subsequent Hb-modification and oxygen equilibrium analyses.
The studies described above were conducted using normal whole blood. Next, we investigated whether the improvement in Hb oxygen affinity and the compounds sustained activity also translated to similar effects in SS blood from SCD patients. […] At 1 mM, PP8 and PP9 inhibited nearly 100% of sickling, while PP2, PP6, PP14 inhibited sickling by more than 70%. […] It is clear that the modifications of the present compounds has led to significant improvement in antisickling activity.

Hb [5] = target: T2, Hb; test: Oxygen equilibrium curve (OEC) studies with normal whole blood; type: cell-based; parameters: Hemoglobin modification, studies using non-sickling AA blood; from tissue; host or cells: non-sickling (AA) human blood, red blood cells; details: normal whole blood, 0.5, 1, 2 mM
Protocol: Oxygen equilibrium curve (OEC) studies to determine the effect of the compounds on Hb affinity for oxygen were conducted following standard procedure. Whole blood (30% hematocrit) was incubated in the absence or presence of compounds (0.5 mM, 1.0 mM and 2.0 mM) solubilized in DMSO. […] After equilibration, the sample was removed via syringe and aspirated into an ABL 700 series table top automated blood gas analyzer (Radiometer America, Inc., Westlake, OH) to determine total hemoglobin (tHb), hematocrit (Hct), pH, pCO2, partial pressure of oxygen (pO2), and the Hb-O2 saturation (sO2) values. The measured values of pO2 and sO2 at each oxygen saturation level were then subjected to nonlinear regression analysis using the software Scientist (Micromath, Salt Lake City UT) with the following equation: […]
Aromatic aldehydes are known to prevent hypoxia-induced Hb S polymerization by increasing the Hb affinity for oxygen. We therefore tested the PP compounds in a dose-dependent manner (0.5, 1, 2 mM) for their effect on Hb oxygen binding property. […] These findings confirmed that the potent in vitro activity previously seen in TD7 was at least conserved in the novel PP compounds.
Target sequence in this assay (P69905 2-142 limits assumed): as the sequence (P69905 2-142) above
Target sequence in this assay (P68871 2-147 partner limits assumed): as the sequence (P68871 2-147 partner limits assumed) above

Hb [6] = target: T2, Hb; test: Drug partitioning studies, fixed and unfixed Hb adducts in non-sickling AA blood; type: cell-based; parameters: Hemoglobin modification, studies using non-sickling AA blood; from tissue; host or cells: non-sickling (AA) human blood, red blood cells; details: 2 mM
Summary of the method: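 Non-sickling blood was incubated with test molecules and lysed either in water (unfixed) or in 50 mM sodium borohydride (fixed). Hb adducts were quantified by cation-exchange HPLC as a fraction of total Hb. The partitioning ratio is fixed over unfixed modification and reflects intracellular Hb binding after RBC membrane permeation.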
Target sequence in this assay (P69905 2-142 limits assumed): as the sequence (P69905 2-142) above
Target sequence in this assay (P68871 2-147 partner limits assumed): as the sequence (P68871 2-147 partner limits assumed) above

bioavailability [2]	Compound	polymer destabilizing effect / sickle inhibition in anoxia (in words) [1]	modified Hb (intracellular Hb)	Hb Modification (%) (Hb [3])	loss of Hb modification activity at 24 hours (Hb [4])	inhibition at 500 µM (sickle red blood cells; 0.5 mM)	inhibition at 1000 µM (sickle red blood cells; 1 mM)	effect on Hb oxygen binding property (OEC) (Hb [5])	Fixed Adducts (%) (Hb [6]; 6 biological replicates)	Unfixed Adduct (%) (Hb [6]; 6 biological replicates)	Partitioning Ratio (%) (Hb [6]; fixed relative to unfixed adducts)
not bioavailable	O=Cc1c(O)cccc1OCc1ccccc1 [Reference A, 2-(benzyloxy)-6-hydroxybenzaldehyde, reference compound]	exhibits potent polymer destabilizing effects	–	–	–	–	–	–	–	–	–
–	COc1ccc(OCc2cccc(CO)n2)c(C=O)c1 [TD-7, reference compound]	–	1.5±0.3%	72.5%	45%	26%	47%	relatively similar potency as most of the best PP compounds	80.9 ± 2.5%	73.5 ± 1.5%	103.7 ± 7.5%
